Consider five compounds from ChEMBL document CHEMBL5625210, “5-Cyano substituted diarylpyridines as potent HIV-1 NNRTIs: Rational design, synthesis, and activity evaluation” (Eur J Med Chem, 2023).

As usually defined, the IC50 is the concentration that inhibits the measured activity by half. As a reminder, the EC50 is the concentration giving half of the maximal effect. Usually CC50 stands for the concentration giving 50% cytotoxicity.

The target of series [1] is Human immunodeficiency virus type 1 reverse transcriptase (Human immunodeficiency virus 1, UniProt Q72547). In words: Inhibition of wild type HIV-1 reverse transcriptase assessed as inhibition of biotin-dUTP incorporation using ABTS as substrate incubated for 1 hrs by ELISA analysis. For orientation: ELISA stands for enzyme-linked immunosorbent assay.
The subject of series [2] is Human immunodeficiency virus 1. Kind of series: Antiviral activity against HIV-1 K103N mutant infected in human MT4 cells assessed as protection against virus-induced cytopathic effect incubated for 5 days by MTT assay. It counts as functional, organism-based. Particulars: Human immunodeficiency virus 1, MT4, 120 h.
For series [3], the system named is Human immunodeficiency virus 1. Kind of series: Antiviral activity against HIV-1 F227L/V106A mutant infected in human MT4 cells assessed as protection against virus-induced cytopathic effect incubated for 5 days by MTT assay. It counts as functional, organism-based. To be noted: Human immunodeficiency virus 1, MT4, 120 h. Background: Cytopathic effects are the visible damage that an infection or toxin causes in cultured cells.

In series [4] the test system is Human immunodeficiency virus 1. Kind of series: microbe, parasite or virus in culture. To be noted: Human immunodeficiency virus 1, MT4, 120 h.
Description: Antiviral activity against HIV-1 RES056 mutant infected in human MT4 cells assessed as protection against virus-induced cytopathic effect incubated for 5 days by MTT assay
Series [5] relates to Human immunodeficiency virus 1. Kind of series: Antiviral activity against HIV-1 […] mutant infected in human MT4 cells assessed as protection against virus-induced cytopathic effect incubated for 5 days by MTT assay. It counts as functional, organism-based. To be noted: Human immunodeficiency virus 1, MT4, 120 h.
For series [6], the system named is Human immunodeficiency virus 1. Kind of series: Antiviral activity against HIV-1 Y188L mutant infected in human MT4 cells assessed as protection against virus-induced cytopathic effect incubated for 5 days by MTT assay. It counts as functional, organism-based. Particulars: Human immunodeficiency virus 1, MT4, 120 h.
The test system of series [7] is Human immunodeficiency virus 1. Kind of series: Antiviral activity against wild type HIV-1 IIIB infected in human MT4 cells assessed as protection against virus-induced cytopathic effect incubated for 5 days by MTT assay. The series is classed as functional, organism-based. Particulars: Human immunodeficiency virus 1, IIIB, MT4, 120 h.
Series [8] concerns Human immunodeficiency virus 1. In words: Antiviral activity against HIV-1 E138K mutant infected in human MT4 cells assessed as protection against virus-induced cytopathic effect incubated for 5 days by MTT assay. It counts as functional, organism-based. Particulars: Human immunodeficiency virus 1, MT4, 120 h.
Series [9] deals with Human immunodeficiency virus 2. Kind of series: Antiviral activity against wild type HIV-2 ROD infected in human MT4 cells assessed as protection against virus-induced cytopathic effect incubated for 5 days by MTT assay. It counts as functional, organism-based. Particulars: Human immunodeficiency virus 2, ROD, MT4, 120 h.
Series [10] is described as follows: in vitro. To be noted: human, MT4 cells.
Description: Selectivity index, ratio of CC50 for cytotoxicity against human MT4 cells to EC50 for antiviral activity against wild type HIV-1 IIIB infected in human MT4 cells
Series [11] is described as follows: Cytotoxicity against human MT4 cells assessed as reduction in cell viability incubated for 5 days by MTT assay. It counts as toxicity, cell-based. To be noted: time 5 day. Background: Tetrazolium assays rely on reduction of a dye to a coloured formazan, in cell work by metabolically active cells.
Series [12] has as its system Human immunodeficiency virus 1. In words: Antiviral activity against HIV-1 Y181C mutant infected in human MT4 cells assessed as protection against virus-induced cytopathic effect incubated for 5 days by MTT assay. It counts as functional, organism-based. To be noted: Human immunodeficiency virus 1, MT4, 120 h.

In the case of `Cc1cc(C#N)cc(C)c1Oc1nc(Nc2ccc(C#N)c(C#N)c2)c(C#N)cc1Cl`, the half-maximal inhibitory concentration (IC50) in series [1] came to 144 nM. For the same compound, the EC50 was 233 nM in series [2]; 2250 nM in series [3]; more than 202000 nM in series [4]; 313 nM in series [5]; more than 202000 nM in [6]; 14.1 nM in series [7]. In addition, the EC50 in series [8] was 287 nM; in series [9], more than 202 nM; in series [12], 1120 nM. In series [10], the selectivity ratio came to 14300. Moreover, in [11], the CC50 at 120 h stood at 202000 nM.
Regarding `Cc1cc(C#N)cc(C)c1Oc1nc(Nc2ccc(CN3CCN(S(C)(=O)=O)CC3)cc2)c(C#N)cc1Cl`, the IC50 in [1] was found to be 392 nM. For the same compound, the 50% effective concentration (EC50) was 633 nM in [2]; 276 nM in series [3]; more than 208000 nM in [4]; 238 nM in series [5]; 2960 nM in series [6]; 14.5 nM in [7]. Besides, the EC50 in series [8] is 131 nM; in series [9], more than 208 nM; in series [12] it was 555 nM. Moreover, the selectivity ratio in [10] was 14300. Also, the half-maximal cytotoxic concentration (CC50) at 120 h in [11] amounted to 208000 nM.
As for `Cc1cc(C#N)cc(C)c1Oc1ccc(C#N)c(NC2CCN(Cc3ccc(C(N)=O)cc3)CC2)n1`, the IC50 in series [1] was determined as 256 nM. The EC50 is 110 nM in series [2]; 1020 nM in series [3]; 4250 nM in [4]; 318 nM in series [5]; 348 nM in [6]; 8.32 nM in series [7]. The 50% effective concentration (EC50) in series [8] was 50 nM; in series [9], more than 28.6 nM; in [12], 110 nM. For the same compound, the selectivity ratio in series [10] was found to be 3440. The CC50 at 120 h in series [11] was found to be 28600 nM.
Consider `Cc1cc(C#N)cc(C)c1Oc1ccc(C#N)c(NC2CCN(Cc3ccc(S(C)(=O)=O)cc3)CC2)n1`, for which, in series [1], the half-maximal inhibitory concentration (IC50) is 429 nM. For the same compound, the half-maximal effective concentration (EC50) in series [2] came out at 34.9 nM; in series [3] it was 182 nM; in series [4], 7180 nM; in series [5], 136 nM; in series [6], 244 nM; in [7], 5.82 nM. Further, the EC50 in [8] is 211 nM; in series [9] it was more than 19.1 nM; in series [12], 38.8 nM. In series [10], the selectivity ratio came to 3290. The CC50 at 120 h in series [11] came out at 19100 nM.
Take `Cc1cc(C#N)cc(C)c1Oc1nc(NC2CCN(Cc3ccc(C(N)=O)cc3)CC2)c(C#N)cc1Cl`: the concentration for half-maximal inhibition (IC50) in [1] turned out to be 402 nM. The concentration for a half-maximal effect (EC50) in series [2] turned out to be 31.1 nM; in [3], 357 nM; in [4], 2440 nM; in series [5], 66 nM; in [6], 221 nM; in series [7], 5.83 nM. For the same compound, the EC50 in series [8] was 33 nM; in [9], more than 154 nM; in series [12] it was 40.8 nM. Further, the selectivity ratio in series [10] is 26500. In addition, the cytotoxic concentration (CC50) at 120 h in series [11] amounted to 154000 nM.
